In assay [1] the target is Spike glycoprotein/Angiotensin-converting enzyme 2 (Severe acute respiratory syndrome coronavirus 2) (UniProt Q9BYF1+P0DTC2). Description: Inhibition of SARS-CoV-2 spike glycoprotein/ His tagged human ACE2 interaction at 100 uM incubated for 1 hr followed by substrate addition and measured after 15 mins by ELISA relative to control. In kind it is protein assay. On the technique in general: In an ELISA, binding on a coated surface is turned into a signal by an enzyme label.

In assay [2] the target is Spike glycoprotein/Angiotensin-converting enzyme 2 (Severe acute respiratory syndrome coronavirus 2, UniProt P0DTC2+Q9BYF1). Description: Inhibition of SARS-CoV-2 spike glycoprotein/ His tagged human ACE2 interaction incubated for 1 hr followed by substrate addition and measured after 15 mins by ELISA. In kind it is protein assay.
Sequence of Spike glycoprotein/Angiotensin-converting enzyme 2 (Q9BYF1 18-805 limits assumed, other chains not shown): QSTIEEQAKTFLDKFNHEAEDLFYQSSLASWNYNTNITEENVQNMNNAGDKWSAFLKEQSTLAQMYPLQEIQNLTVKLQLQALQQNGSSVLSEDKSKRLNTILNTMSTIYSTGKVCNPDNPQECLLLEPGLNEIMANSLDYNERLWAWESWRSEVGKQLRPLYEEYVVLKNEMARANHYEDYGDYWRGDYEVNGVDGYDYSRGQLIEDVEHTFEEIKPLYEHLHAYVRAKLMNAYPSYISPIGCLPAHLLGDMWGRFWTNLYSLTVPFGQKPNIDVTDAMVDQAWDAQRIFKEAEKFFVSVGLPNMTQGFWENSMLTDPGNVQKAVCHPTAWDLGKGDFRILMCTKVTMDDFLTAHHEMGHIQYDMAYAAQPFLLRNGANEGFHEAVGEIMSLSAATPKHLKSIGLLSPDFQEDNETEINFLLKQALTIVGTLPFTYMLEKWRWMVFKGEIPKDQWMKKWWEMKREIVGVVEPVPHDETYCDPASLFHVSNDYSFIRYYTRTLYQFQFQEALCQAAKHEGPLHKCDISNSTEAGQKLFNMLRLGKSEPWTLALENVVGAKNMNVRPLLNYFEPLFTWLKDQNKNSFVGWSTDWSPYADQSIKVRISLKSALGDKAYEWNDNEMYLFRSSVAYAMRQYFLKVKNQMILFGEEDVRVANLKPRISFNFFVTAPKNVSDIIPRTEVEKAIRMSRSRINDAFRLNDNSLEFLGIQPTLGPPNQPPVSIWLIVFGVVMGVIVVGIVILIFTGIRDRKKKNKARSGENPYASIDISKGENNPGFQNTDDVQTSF

As usually defined, the inhibition is how much of the control response was suppressed. Lower therefore signals a weak effect. As usually defined, the IC50 is the concentration that gives 50% inhibition. As for `C[C@@H](CO)c1ccc(CO)c2ccc(C(=O)O)cc12`, the inhibition in assay [1] was above 50%. The compound further displayed an IC50 in assay [2] of 94.4 µM.
The matching figures for `CC(C)c1ccc(C(=O)O)c2ccc(C(=O)O)cc12`: above 50% and 95.1 µM.
`C[C@@H](CO)c1ccc(C(=O)O)c2ccc(C(=O)O)cc12` registered an inhibition in assay [1] above 50%. For the same compound, in assay [2], inhibition was half-maximal at 76.1 µM (IC50).
For `CC(C)c1ccc(CO)c2ccc(C(=O)O)cc12`, the inhibition in assay [1] was above 50%. The same compound had an IC50 in assay [2] of 99.1 µM.
The matching figures for `CC(C)(O)c1ccc(CO)c2ccc(C(=O)O)cc12`: above 50% and 64.5 µM.

The values are drawn from ChEMBL document CHEMBL4840319, “Aromatic Cadinane Sesquiterpenoids from the Fruiting Bodies of Phellinus pini Block SARS-CoV-2 Spike-ACE2 Interaction” (J Nat Prod, 2021).
